Columns and labels:
[1] = system: HCT116 FOP control reporter cell line; assay: HCT116 FOPFlash control reporter assay (FOP control vector, non-functional TCF elements); type: cell-based; conditions: HCT116 FOP control reporter cells, 36 hours incubation, luciferase expression
Description: In a parallel approach, HCT116 cells were cotransfected with the FOP control vector and pcDNA3. The FOP vector is identical to the TOP construct, but it contains instead of functional TCF elements a randomized, non-functional sequence. For this transfection a stable transfected cell line was generated as well.

[2] = system: constitutive active colorectal cancer cell (CRC) Wnt pathway; assay: HCT116 TOPFlash cellular reporter assay (Super TopFlash luciferase), constitutive active Wnt pathway; type: cell-based; conditions: HCT116 TOP reporter cells, 36 hours incubation, luciferase expression
Method: In order to discover and characterize small molecules which inhibit the constitutive active colorectal cancer cell (CRC) Wnt pathway, a cellular reporter assay was employed. […] Stable transfectants were generated by cotransfection with pcDNA3 and selection of stable transfected cells with 1 mg/ml G418.

SMILES	IC50 ([1]; Homo sapiens, HCT-116, 36 h) [nM]	IC50 ([2]; Homo sapiens, HCT-116, 36 h) [nM]	IC50 [1] [nM]	IC50 [2] [nM]
Cc1ccc(C(=O)Nc2nnc(-c3ccccc3)s2)cc1NC(=O)C1(N2CCOCC2)CC1 [Example 103, 4-methyl-3-({[1-(morpholin-4-yl)cyclopropyl]carbonyl}amino)-N-(5-phenyl-1,3,4-thiadiazol-2-yl)benzamide]	21000	752		
O=C(CN1CCOCC1)Nc1cc(C(=O)Nc2cnc(-c3ccccc3)s2)ccc1OC(F)(F)F [Example 122, 3-[(morpholin-4-ylacetyl)amino]-N-(2-phenyl-1,3-thiazol-5-yl)-4-(trifluoromethoxy)benzamide]	≥ 50000	202		
Cc1ccccc1-c1nnc(NC(=O)c2ccc(OC(F)(F)F)c(NC(=O)C3(N4CCOCC4)CC3)c2)s1 [Example 257, N-[5-(2-methylphenyl)-1,3,4-thiadiazol-2-yl]-3-({[1-(morpholin-4-yl)cyclopropyl]carbonyl}amino)-4-(trifluoromethoxy)benzamide]	≥ 50000	17		
CC(C(=O)Nc1cc(C(=O)Nc2ccc(-c3cc(F)cc(F)c3)nc2)ccc1OC(F)(F)F)N1CCOCC1 (stereo not drawn) [Example 245, N-[6-(3,5-difluorophenyl)pyridin-3-yl]-3-{[2-(morpholin-4-yl)propanoyl]amino}-4-(trifluoromethoxy)benzamide]			5200	7.85
CN1CCN(CC(=O)Nc2cc(C(=O)Nc3nnc(-c4cccc(C(F)(F)F)c4)s3)ccc2OC(F)(F)F)CC1 [Example 272, 3-{[(4-methylpiperazin-1-yl)acetyl]amino}-4-(trifluoromethoxy)-N-{5-[3-(trifluoromethyl)phenyl]-1,3,4-thiadiazol-2-yl}benzamide]	≥ 50000	545		
O=C(CN1CCOCC1)Nc1cc(C(=O)Nc2nnc(-c3ccccc3)s2)ccc1OC(F)(F)F [Example 55, 3-[(morpholin-4-ylacetyl)amino]-N-(5-phenyl-1,3,4-thiadiazol-2-yl)-4-(trifluoromethoxy)benzamide]	≥ 50000	150		
O=C(CN1CCN(C2CC2)CC1)Nc1cc(C(=O)Nc2ccc(-c3ccccc3F)nc2)ccc1C(F)(F)F [Example 227, 3-{[(4-cyclopropylpiperazin-1-yl)acetyl]amino}-N-[6-(2-fluorophenyl)pyridin-3-yl]-4-(trifluoromethyl)benzamide]	10200	245		
O=C(Cc1ccccn1)Nc1cc(C(=O)Nc2ccc(-c3ccccc3F)nc2)ccc1OC1CC1 [Example 238, 4-(cyclopropyloxy)-N-[6-(2-fluorophenyl)pyridin-3-yl]-3-[(pyridin-2-ylacetyl)amino]benzamide]	≥ 50000	1750		
Cc1cccc(-c2nnc(NC(=O)c3ccc(OC(F)(F)F)c(NC(=O)CN4CCN(C)CC4)c3)s2)c1 [Example 145, N-[5-(3-methylphenyl)-1,3,4-thiadiazol-2-yl]-3-{[(4-methylpiperazin-1-yl)acetyl]amino}-4-(trifluoromethoxy)benzamide]	≥ 50000	152		
COc1ccc(C(=O)Nc2nnc(-c3ccccc3)s2)cc1NC(=O)CN1CCN(C)CC1 [Example 91, 4-methoxy-3-{[(4-methylpiperazin-1-yl)acetyl]amino}-N-(5-phenyl-1,3,4-thiadiazol-2-yl)benzamide]	44000	650		
Cc1ccccc1-c1nnc(NC(=O)c2ccc(OC(F)(F)F)c(NC(=O)C3(N4CCN(C)CC4)CC3)c2)s1 [Example 271, N-[5-(2-methylphenyl)-1,3,4-thiadiazol-2-yl]-3-({[1-(4-methylpiperazin-1-yl)cyclopropyl]carbonyl}amino)-4-(trifluoromethoxy)benzamide]	≥ 50000	480		
CC(C(=O)Nc1cc(NC(=O)c2cnc(-c3ccccc3)s2)ccc1OC(F)(F)F)N1CCOCC1 (stereo not drawn) [Example 255, N-[3-{[2-(morpholin-4-yl)propanoyl]amino}-4-(trifluoromethoxy)phenyl]-2-phenyl-1,3-thiazole-5-carboxamide]	≥ 50000	2100		
CC(C(=O)Nc1cc(NC(=O)c2ccc(-c3cccc(F)c3)nc2)ccc1OC(F)(F)F)N1C[C@@H]2C[C@H]1CO2 (relative stereo) [Example 193, 6-(3-fluorophenyl)-N-[3-({(2R*)-2-[(1S,4S)-2-oxa-5-azabicyclo[2.2.1]hept-5-yl]propanoyl}amino)-4-(trifluoromethoxy)phenyl] nicotinamide]	8800	148		
CC(C(=O)Nc1cc(C(=O)Nc2ccc(-c3cc(F)cc(F)c3)nc2)ccc1OC(F)(F)F)N1C[C@@H]2C[C@H]1CO2 (relative stereo) [Example 181, N-[6-(3,5-difluorophenyl)pyridin-3-yl]-3-({(2S*)-2-[(1S,4S)-2-oxa-5-azabicyclo[2.2.1]hept-5-yl]propanoyl}amino)-4-(trifluoromethoxy)benzamide]			≥ 50000	53
COCCNC(=O)c1ccc(C(=O)Nc2nnc(-c3ccccc3)s2)cc1NC(=O)CN1CCOCC1 [Example 156, N^1-(2-methoxyethyl)-2-[(morpholin-4-ylacetyl)amino]-N^4-(5-phenyl-1,3,4-thiadiazol-2-yl)terephthalamide]	≥ 50000	542		
CC(C(=O)Nc1cc(NC(=O)c2ccc(-c3cccc(F)c3)nc2)ccc1OC(F)(F)F)N1CC2CCC(C1)O2 (stereo not drawn) [Example 188, 6-(3-fluorophenyl)-N-[3-{[2-(8-oxa-3-azabicyclo[3.2.1]oct-3-yl)propanoyl]amino}-4-(trifluoromethoxy)phenyl] nicotinamide]			5500	120
CC(C(=O)Nc1cc(C(=O)Nc2ccc(-c3cc(F)cc(F)c3)nc2)ccc1OC(F)(F)F)N1C[C@@H]2C[C@H]1CO2 (stereo partly drawn) [Example 223, N-[6-(3,5-difluorophenyl)pyridin-3-yl]-3-({2-[(1S,4S)-2-oxa-5-azabicyclo[2.2.1]hept-5-yl]propanoyl}amino)-4-(trifluoromethoxy)benzamide]	17100	238		
COCc1ccc(C(=O)Nc2nnc(-c3ccccc3)s2)cc1NC(=O)CN1CCOCC1 [Example 83, 4-(methoxymethyl)-3-[(morpholin-4-ylacetyl)amino]-N-(5-phenyl-1,3,4-thiadiazol-2-yl)benzamide]	≥ 50000	515		
CN1CCN(C2(C(=O)Nc3cc(C(=O)Nc4ccc(-c5ccccc5F)nc4)ccc3OC(F)(F)F)CC2)CC1 [Example 236, N-[6-(2-fluorophenyl)pyridin-3-yl]-3-({[1-(4-methylpiperazin-1-yl)cyclopropyl]carbonyl}amino)-4-(trifluoromethoxy)benzamide]	≥ 50000	276		
CC(C(=O)Nc1cc(NC(=O)c2ccc(-c3cccc(F)c3)nc2)ccc1OC(F)(F)F)N1C[C@@H]2C[C@H]1CO2 (stereo partly drawn) [Example 199, 6-(3-fluorophenyl)-N-[3-({2-[(1S,4S)-2-oxa-5-azabicyclo[2.2.1]hept-5-yl]propanoyl}amino)-4-(trifluoromethoxy)phenyl] nicotinamide]	8800	71.7		
COc1ccc(NC(=O)c2ccc(-c3ccccc3)nc2)cc1NC(=O)C1(N2CCOCC2)CC1 [Example 256, N-[4-methoxy-3-({[1-(morpholin-4-yl)cyclopropyl]carbonyl}amino)phenyl]-6-phenylnicotinamide]	≥ 50000	240		

Source: US10130633B2, “Compounds” (BAYER PHARMA AKTIENGESELLSCHAFT, priority 2013, dated 2018)
